The numbers were not newly measured in patent publication US11253518B2, “Methods and compositions for the treatment of hair loss” (Aneira Pharma, Inc., priority 2019, dated 2022), which cites them from elsewhere.

As a reminder, the EC50 is the concentration needed to bring the measured effect to its halfway point.

For series [1] the following is noted: believed.
Series [2] has as its system elevated intraocular pressure. The following applies: glaucomatous monkeys; Gagliuso 2004.
In series [3] the test system is elevated intraocular pressure. The following applies: some human glaucoma patients; Gandolfi 2003.
Experiment in series [4]: not given
The source holds these as a separate data set.

In series [5] the target is T1, human FP receptors (Homo sapiens, UniProt P43088).
T1 sequence (P43088 whole entry): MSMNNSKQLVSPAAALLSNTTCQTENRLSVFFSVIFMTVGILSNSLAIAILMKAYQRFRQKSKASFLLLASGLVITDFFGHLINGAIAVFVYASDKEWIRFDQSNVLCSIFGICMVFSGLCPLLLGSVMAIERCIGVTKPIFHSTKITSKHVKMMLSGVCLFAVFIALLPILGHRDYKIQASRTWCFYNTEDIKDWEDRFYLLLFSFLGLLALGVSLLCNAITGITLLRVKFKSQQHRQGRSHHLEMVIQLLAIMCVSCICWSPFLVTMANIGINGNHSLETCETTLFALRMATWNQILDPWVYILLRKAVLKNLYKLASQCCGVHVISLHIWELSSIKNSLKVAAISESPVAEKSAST
In series [6] the target is T1, human FP receptors. The source holds these as a separate data set.
The subject of series [7] is production of dihydrotestosterone (DHT). The following applies: oral; including prostate gland and scalp.
For another series, the system named is hair growth. The following applies: for hair growth: McCarey 2004.

≈ marks a conversion by molar mass, not a printed value. Read-outs that look alike come from different tables or passages of the source.

Turning to `CCNC(=O)CCC/C=C\C[C@@H]1[C@@H](/C=C/[C@@H](O)CCc2ccccc2)[C@H](O)C[C@@H]1O` [bimatoprost, Bimatoprost], the “amount converted into bimatoprost free acid” value in series [1] is given as “under 5%”. Besides, the “effect on intraocular pressure together with latanoprost” value in series [2] is “additive”. The “reduction of elevated intraocular pressure in latanoprost non-responders” value in series [3] is “responsive”.
Regarding `CC(C)OC(=O)CCC/C=C\C[C@@H]1[C@@H](CC[C@@H](O)CCc2ccccc2)[C@H](O)C[C@@H]1O` [latanoprost, isopropyl ester of 17-phenyl-13,14-dihydro prostaglandin F2a], the solubility is, setting by setting: (1:4 solution of ethanol:PBS (pH 7.2)) 400 µg/mL (≈ 925 µM); (PBS (pH 7.2)) “approximately 50 μg/mL”; (propylene glycol, methanol, ethanol and 2-propanol) not below 5%. The “stable for” value in series [4] (acidic or basic aqueous solutions) is reported as “no more than 48 hours”; in series [4] (neutral aqueous solutions, room temperature), “up to one month”.
For `O=C(O)CCC/C=C\C[C@@H]1[C@@H](CC[C@@H](O)CCc2ccccc2)[C@H](O)C[C@@H]1O` [Latanoprost free acid], the “potency relative to PGF2α” value at human FP receptors [5] is “twice the potency”. Besides, the EC50 at human FP receptors [5] (FP receptor agonist) is 3.6 nM. In addition, at human FP receptors [6], the “potency as FP receptor ligand relative to latanoprost” value is on record as “two-hundred times more potent”.
Consider `CC(C)(C)NC(=O)[C@H]1CC[C@H]2[C@@H]3CC[C@H]4NC(=O)C=C[C@]4(C)[C@H]3CC[C@]12C` [finasteride, (1S,3aS,3bS,5aR,9aR,9bS,11aS)-N-tert-butyl-9a,11a-dimethyl-7-oxo-1,2,3,3a,3b,4,5,5a,6,9b,10,11-dodecahydroindeno[5,4-f]quinoline-1-carboxamide], for which the “decrease of production of dihydrotestosterone (DHT)” value in series [7] is “about 70%”.
`CCCCCCCC(=O)CC[C@@H]1[C@@H](C/C=C\CCCC(=O)OC(C)C)[C@@H](O)C[C@H]1O` [Uenoprostone isopropyl ester, Unoprostone isopropyl ester]: the “incidence of iris pigmentation and eyelash changes” value in the series on hair growth (0.15%, two randomized clinical trials) was “Low incidence”. Also, the hair growth result with hair growth was “no hair growth”.
For the molecule `CCCCCCCC(=O)CC[C@@H]1[C@@H](C/C=C\CCCC(=O)O)[C@@H](O)C[C@H]1O` [uenoprostone free acid], in the series on hair growth, the hair growth entry is “no hair growth”.
